The test system of the assay is INS-1E cytokine-induced caspase-3/7, Caspase-Glo luminescence, 48 h. Kind of assay: suppression of cytokine-driven beta-cell apoptosis – INS-1E rat cells, luminescence, orthogonal assay for beta-cell apoptosis protection project, dose response (AID 463206).

Active and inactive are the calls of the source.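 The calls were made as follows: active = caspase luminescence falls with dose and the half-maximal concentration AC50 from the fitted curve is at or below a set limit; inconclusive = flat fit at 30 to 70% signal loss, or invalid fit; inactive = AC50 above the limit, or signal rises instead.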

As to `O=C(N/N=C/c1ccccc1O)c1ccc2c(c1)OCO2`, the AC50 was > 26 µM (inactive). `Cc1ccc(S(=O)(=O)N2CCN(c3ncnc4ccccc34)CC2)cc1`: the AC50 is > 26 µM (inactive). For the molecule `CCCCCCc1cc2cc(C(=O)Nc3ccccc3)c(=O)oc2cc1O`, the AC50 is > 26 µM (inactive). Consider `C=CCC1(CC=C)CCCN1C(=O)c1cc(COc2ccc(C)nc2)on1`, for which the AC50 was > 26 µM (inactive). In the case of `NC(N)=N/N=C/c1ccc(OCc2ccccc2)cc1`, the AC50 is > 26 µM (inactive). Turning to `CN1/C(=C\C(=O)c2ccco2)C(C)(C)c2ccccc21`, the AC50 was > 26 µM (inactive). On to `CCSc1ccc(NC(=O)c2cccnc2)cc1`, for which the AC50 is > 26 µM (inactive).

Take `CCOC(=O)N1CCN(c2ncnc3c2[nH]c2ccc(F)cc23)CC1`: the AC50 was > 26 µM (inactive). For `COc1ccc(C2C(O)C(c3c[nH]c4ccccc34)=NN2C(=O)CCl)cc1` (stereo not given), the AC50 is > 26 µM (inactive). In the case of `OC(c1cc(-c2ccc(C(F)(F)F)cc2)nc(C(F)(F)F)c1)C1CCCCN1` (stereo not given), the AC50 was > 26 µM (inactive).

Turning to `C/C(=N\N1C(=O)c2ccccc2NC1c1ccco1)c1ccccc1O` (stereo not given), the AC50 is > 26 µM (inactive). The same measure for `O=C(c1cc2sccc2n1Cc1ccccc1)N1CCN(c2nc3ccccc3s2)CC1`: > 26 µM (inactive); for `COc1cccc(/C=N/NC(=O)c2cc3c(OC)ccc(OC)c3[nH]2)c1O`: > 26 µM (inactive). Regarding `CC(=O)Nc1ccc(S(=O)(=O)N2c3ccccc3NC(=O)CC2C)c(Cl)c1` (stereo not given), the AC50 was > 26 µM (inactive).

Turning to `CCOC(=O)N1CCN(C(=O)CSCC(=O)Nc2nc(-c3ccc(-c4ccccc4)cc3)cs2)CC1`, the AC50 is > 26 µM (inactive).

On to `CCc1ccc(-n2cc(-c3ccc(F)cc3)[n+]3c2SCCC3)cc1`, for which the AC50 was > 26 µM (inactive). As to `CCN(Cc1ccccc1)C(c1cccs1)c1nnnn1C1CCCCC1` (stereo not given), the AC50 was > 26 µM (inactive).

As for `CCCNC(=O)c1c(N)n(-c2cccc(OC)c2)c2nc3ccccc3nc12`, the AC50 is > 26 µM (inactive). To `COc1cc(SC#N)ccc1N=Cc1c(C)[nH]n(-c2ccc(C)c(C)c2)c1=O` belongs > 26 µM (inactive); to `O=C1C(Cl)=C(NCc2cccnc2)C(=O)c2ccccc21`, > 26 µM (inactive); to `Oc1ccc(N=Nc2nccs2)c(O)c1`, > 26 µM (inactive). Take `COc1ccc(S(=O)(=O)/N=C2\C=C(Nc3ccc(O)cc3)C(=O)c3ccccc32)cc1`: the AC50 is > 26 µM (inactive). Take `COc1ccc2nc(C)cc(N/N=C/c3ccc(F)cc3)c2c1`: the AC50 is > 26 µM (inactive). On to `Cc1ccccc1Oc1cc(-n2ncc(Cl)c(Cl)c2=O)ncn1`, for which the AC50 was > 26 µM (inactive). Regarding `CCOC(=O)c1cccc(-[n+]2c(-c3ccccc3)cc(-c3ccccc3)cc2-c2ccccc2)c1`, the AC50 is > 26 µM (inactive). To `CCOC(=O)N1CCN(S(=O)(=O)c2ccc(C(=O)NNc3nc4c(C)cc(C)cc4s3)cc2)CC1` belongs > 26 µM (inactive); to `COC(=O)c1ccc2c(c1)C(C)(C)C(/C=C/c1ccc(OC)c(OC)c1OC)=[N+]2C`, > 26 µM (inactive); to `CCC(C)(C)c1ccc(OCCCC[n+]2cccc(C)c2C)c(C(C)(C)CC)c1`, > 26 µM (inactive).

`COc1ccc(S(=O)(=O)Nc2ccc3oc(C)c(C(C)=O)c3c2)cc1`: the AC50 is 22.6 µM. In the case of `CCOc1ccc(C(Nc2cccnc2)c2cc(Cl)c3cccnc3c2O)cc1` (stereo not given), the AC50 is > 26 µM (inactive).

Consider `COc1ccc(C2/C=C\CN(C(=O)c3ccccc3)[C@H](Cc3ccccc3)C(=O)N2Cc2ccc(F)cc2)cc1` (stereo not given in full), for which the AC50 is > 26 µM (inactive). Turning to `Fc1ccc(CN(Cc2ccccc2)C(c2cccs2)c2nnnn2C2CCCCC2)cc1` (stereo not given), the AC50 is > 26 µM (inactive). To `Cc1cc(C)n(-c2nc(NCCO)c3c4c(sc3n2)CCCC4)n1` belongs > 26 µM (inactive); to `Cc1ccccc1/C=C/C(=O)c1ccc([N+](=O)[O-])o1`, > 26 µM (inactive); to `Cc1ccccc1OCCCCn1cnc2ccccc21`, > 12 µM (inactive).

As to `N=c1ccn(Cc2ccc(Cl)cc2Cl)cc1`, the AC50 is > 26 µM (inactive). For the molecule `Cc1cccc(NC(=S)Nc2ccc3cn[nH]c3c2)c1`, the AC50 was > 26 µM (inactive). Regarding `Cc1c2ccncc2c(C)c2c1[nH]c1ccccc12`, the AC50 is 1.11 µM. To `CCS(=O)(=O)c1ncc(Cl)c(C(=O)Nc2ccc(S(=O)(=O)N3CCC(C)CC3)cc2)n1` belongs > 26 µM (inactive); to `COC(=O)C1=C(C)N(Cc2ccccc2)C(=NCc2ccccc2)N[C@H]1c1cccc(C(F)(F)F)c1`, > 26 µM (inactive).

`Cc1[nH]n(-c2ccccc2)c(=O)c1/C=N/NC(=O)c1cccc(F)c1`: the AC50 was > 26 µM (inactive). On to `CCS(=O)(=O)c1ncc(Cl)c(C(=O)Nc2ccc(S(=O)(=O)N(C)c3ccccc3)cc2)n1`, for which the AC50 is > 26 µM (inactive). In the case of `CCN(CC)c1ccc(/C=N/NC(=O)c2ccoc2C)c(O)c1`, the AC50 was > 26 µM (inactive).

As for `CCCCCCCCCCOC(=O)Cn1c(COc2ccc(OC)cc2)[n+](C)c2ccccc21`, the AC50 was > 26 µM (inactive). As for `CC[C@H]1CN2CCc3cc(OC)c(OC)cc3[C@@H]2C[C@@H]1C[C@H]1NCCc2cc(OC)c(OC)cc21`, the AC50 is > 26 µM (inactive). As for `Cc1cc(-c2ccccc2)cc(-c2ccccc2)[n+]1CCc1ccccc1`, the AC50 is > 26 µM (inactive). On to `COc1cc(OC)c(NC2=CC(=O)C(=O)c3ccccc32)cc1Cl`, for which the AC50 was > 26 µM (inactive). As to `N#CC(C#N)=C(Nc1ccc(F)cc1)SCc1cccc(Br)c1`, the AC50 is > 26 µM (inactive). To `COc1cc(OC)c2cc(C(=O)N/N=C/c3cccc(OC)c3O)[nH]c2c1` belongs > 26 µM (inactive); to `O=C(Nc1cccc(Cl)c1)Nc1nnc(CSCCOc2ccc(Cl)cc2)s1`, > 26 µM (inactive); to `Oc1c(C(Nc2cccc(C(F)(F)F)c2)c2ccncc2)ccc2cccnc12` (stereo not given), > 26 µM (inactive). With `COc1ccc(OC)c(NC(=O)CSc2ncnc3c2cnn3-c2ccccc2Cl)c1`, the AC50 is > 26 µM (inactive). Take `COc1ccc(C(=O)N(C)c2ccccc2C(=O)NCCc2ccccc2)cc1`: the AC50 was > 26 µM (inactive). As for `Cc1ccc(-n2cccc2C(=S)N=P(N(C)C)(N(C)C)N(C)C)cc1`, the AC50 is > 26 µM (inactive).

Consider `Clc1ccc(C[n+]2c(-c3ccccc3)cc(-c3ccccc3)cc2-c2ccccc2)cc1`, for which the AC50 is > 12 µM (inactive). With `COc1ccc(/C=N/N2CCN(Cc3ccccc3)CC2)cc1`, the AC50 is > 26 µM (inactive). Turning to `O=C(Nc1ccc(OCC(F)(F)C(F)F)c(C(F)(F)F)c1)c1ccccc1O`, the AC50 was > 26 µM (inactive). As for `Oc1c(CN2CCN(c3ccccc3)CC2)cc(Br)c2cccnc12`, the AC50 is > 26 µM (inactive). On to `Cc1cc(C(=O)N/N=C/c2cc(Br)cc(Br)c2OC(=O)c2cccc(F)c2)n[nH]1`, for which the AC50 is > 26 µM (inactive).

Regarding `Cc1ccc(S(=O)(=O)Nc2cc(Cl)c(O)c3ncccc23)cc1`, the AC50 is > 26 µM (inactive).

In the case of `C[n+]1c2n(c3ccccc31)N=C(c1ccc(Cl)cc1)CS2`, the AC50 is > 26 µM (inactive).

Consider `CCOc1ccc(Nc2cc(C)nc(-n3nc(C)cc3C)n2)cc1`, for which the AC50 was > 26 µM (inactive). To `COc1ccc(-c2c([C@H]3[C@H]4C=CC[C@@H](C)[C@@H]4C(=O)N3Cc3ccccc3)ccc3ccccc23)cc1` belongs > 26 µM (inactive). Take `Cc1ccc(S(=O)(=O)/N=C2/C=C(Sc3ncn[nH]3)C(=O)c3ccccc32)cc1`: the AC50 was > 26 µM (inactive).

As to `COc1cc(CNC(C)c2ccccc2)cc(Br)c1OCc1ccc(F)cc1` (stereo not given), the AC50 is > 26 µM (inactive).

On to `C=CCSc1nc2ccccc2n1C(=O)/C=C/c1ccc(OC)c(OC)c1`, for which the AC50 was > 26 µM (inactive). For `O=C(Nc1ccc(Cl)cc1)Nc1csc([N+](=O)[O-])c1`, the AC50 was > 26 µM (inactive). As to `Cc1ccc(-n2c(-c3ccccc3)c[n+]3c2CCc2ccccc2-3)c(C)c1`, the AC50 was > 26 µM (inactive). Take `Cn1nnnc1Sc1ncnc2scc(-c3cc4ccccc4o3)c12`: the AC50 was > 26 µM (inactive). With `CC(C)c1ccc(COc2ccc(C(=O)N3CCOCC3)cc2)cc1`, the AC50 is > 26 µM (inactive). As to `CCN(CC)CCC(=O)Nc1cccc2c1C(=O)c1ccccc1C2=O`, the half-maximal activity concentration (AC50) is 2.26 µM. As for `CC(=O)Nc1ccc(S(=O)(=O)Nc2ccc(N3CCCCC3)cc2)cc1`, the AC50 is > 26 µM (inactive).

`COc1ccc(C2CC(c3cccc(C)c3)n3nc(N)nc3N2)cc1` (stereo not given): the AC50 is > 26 µM (inactive). `CN1CCN(c2ccc(CNS(=O)(=O)Cc3cccc(C(F)(F)F)c3)cc2)CC1`: the AC50 was > 26 µM (inactive). As to `N#CCSc1nc2ccccc2c2nc3ccccc3n12`, the AC50 was > 26 µM (inactive).

As for `N=c1c2c(-c3ccccc3)c(-c3ccccc3)n(Cc3ccco3)c2ncn1Cc1ccccc1`, the AC50 is > 26 µM (inactive).

Turning to `Cc1cccc2cc(-c3ccccc3)c(-c3ccccc3)c[n+]12`, the AC50 is > 26 µM (inactive). To `O=C(/C=C/c1ccccc1)NC(=S)NNC(=O)c1cnccn1` belongs > 26 µM (inactive); to `O=C(Nc1ccc(Cl)cc1)Nc1ccc(Cl)c(Cl)c1`, > 26 µM (inactive); to `CCc1ccc2[nH]c3nc(N/N=C/c4ccc(O)cc4O)nnc3c2c1`, > 12 µM (inactive).

For `Cn1cc(CNCc2ccc(OC(F)(F)F)cc2)c(-c2ccc3c(c2)OCCO3)n1`, the AC50 is > 26 µM (inactive). Consider `C/C(=N\NC(=O)c1cc2ccccc2cc1O)c1ccccn1`, for which the AC50 is > 26 µM (inactive). Consider `CC(=O)NC(c1cc(Cl)c2cccnc2c1O)C(C)C` (stereo not given), for which the AC50 is > 26 µM (inactive). To `C/C(=N\NC(=O)c1cc(-c2cccnc2)nc2ccccc12)c1ccc(O)cc1O` belongs > 26 µM (inactive); to `Cc1cccc(/C=N/NC(=O)c2ccc3c(c2)OCCO3)c1O`, > 26 µM (inactive).

The values are drawn from PubChem BioAssay AID463206 (Broad Institute, 2010).
